According to patent EP4591884A1, “LIPID COMPOUND FOR NUCLEIC ACID DELIVERY, AND RELATED USE AND MEDICAMENT COMPRISING SAME” (Beijing Baishihekang Pharmaceutical Technology (Bsjpharma) …, priority 2022, dated 2024):

Tests used:
Experiment in all cases: in vitro small nucleic acid delivery by lipid-nucleic acid mixture, cell uptake by flow cytometry
Format in all cases: cell-based, human
Conditions in all cases: lipid 1.25 ug/mL, fluorescently labeled PGY-ssRNA-26, final 100 nM, 9 h incubation, flow cytometry fluorescence
293T cells = tested on: 293T cells
Method: (§1) Culture the human pancreatic acinar epithelial cancer cell line HPAC, human large cell lung cancer cell line H460, and human embryonic kidney cell line HEK293T (purchased from the Cell Resource Center, Institute of Basic Medicine, Chinese Academy of Medical Sciences) used in the experiments in a 37°C, 5%CO2 incubator. Culture the HPAC cells in DMEM/F12 medium, the H460 cells in RPMI-1640 medium, and the 293T cells in DMEM medium containing 10% fetal bovine serum and 1% antibiotics (penicillin 100 U/mL & streptomycin […]). Culture the cells to the logarithmic growth phase with a cell density of 6 × 10^5/1 mL medium/well; divide the cells into 12-well plates (1 mL medium/well), and incubate at 37°C overnight (12 h), and then conduct subsequent experiments.
(§2) Add 5 µL of nucleic acid and 95 µL of DEPC-treated water to a 2 mL glass tube, mix homogeneously, add a certain amount of lipid monomer, mix thoroughly, heat in a 90°C water bath for 15 min, and then cool naturally to obtain a mixture of nucleic acid and lipid.
(§3) 3. Detection of cell uptake of nucleic acids delivered by lipids inside cells by means of flow cytometry (CFlow) • 1) Main experimental instruments and equipment: 10 cm cell culture dishes, 12-well cell culture plates, pipettes, transfer tubes, optical microscope, flow cytometer CytoFLEX instrument (purchased from Beckman, USA) • 2) Main experimental reagents: Model establishment and transfection: artificially synthesized lipid monomers and nucleic acids as shown in the table • 3) Culture the human pancreatic acinar epithelial cancer cell line HPAC cells, human large cell lung cancer cell line H460 cells, and human embryonic kidney cell line HEK293T cells used in the experiment to the logarithmic growth phase, and then divide them into 12-well plates at a cell density of 6×10^5/mL culture medium/well; incubate the 12-well plates at 37°C overnight (12 h), and then conduct subsequent experiments. • 4) The experimental groups are as follows: • a) Blank group: refers to untreated cells, and this group serves as a blank control group. • b) Free uptake group: directly add 5 µL of fluorescently labeled nucleic acid solution (stock concentration 20 µM), and this group serves as the negative control group. • c) Lipid-nucleic acid mixture treatment group: add the mixture of lipids and fluorescently labeled nucleic acids prepared in step 2 to the cells, and mix homogeneously. The final concentration of nucleic acids is 100 nM. • 5) After incubating with cells for 9 h, wash the cells three times with PBS, resuspend the cells with PBS (self-prepared), and use a flow cytometer CytoFLEX instrument (purchased from Beckman, USA) to detect the fluorescence intensity of the cells in the sample wells.

H460 cells = tested on: H460 cells
Method: as §1, §2, §3

HPAC cells = tested on: HPAC cells
Method: as §1, §2, §3

Compound | Lipid delivery group (1.25 ug/mL) (293T cells) [%] | Lipid delivery group (1.25 ug/mL) (H460 cells) [%] | Lipid delivery group (1.25 ug/mL) (HPAC cells) [%]
CCCCCCCCCCCCCCCCCCCCCCCC/C=C/[C@@H](O)[C@@H](N)CO [Sphingosine (d29:1), (2S,3R,E)-2-aminononacos-4-ene-1,3-diol] | 32.74 | 62.37 | 23.36
CCCCCCCCCCCCCCCCCCCCCCCCCCCC[C@@H](O)[C@@H](N)CO [Sphingosine (d31:0), (2S,3R)-2-aminohentriacontane-1,3-diol] | 97.4 | 68.16 | 70.5
CCCCCCCCCCCCCCCCCCCCCCCCCCCC/C=C/[C@@H](O)[C@@H](N)CO [Sphingosine (d33:1), (2S,3R,E)-2-aminotritriacont-4-ene-1,3-diol] | 40.07 | 67.01 | 45.88
CCCCCCCCCCCCCCCCCCCCCCCCC[C@@H](O)[C@@H](N)CO [Sphingosine (d28:0), (2S,3R)-2-aminooctacosane-1,3-diol] | 96.93 | 98.52 | 94.40
CCCCCCCCCCCCCCCCCCCCCC[C@@H](O)[C@@H](N)CO [Sphingosine (d25:0), (2S,3R)-2-aminopentacosane-1,3-diol] | 97.76 | 99.26 | 96.17
CCCCCCCCCCCCCCCCCC/C=C/[C@@H](O)[C@@H](N)CO [Sphingosine (d23:1), (2S,3R,E)-2-aminotricos-4-ene-1,3-diol] | 34.51 | 44.11 | 7.93
CCCCCCCCCCCCCCCCCCCCCCCCCCCCCCC[C@@H](O)[C@@H](N)CO [Sphingosine (d34:0), (2S,3R)-2-aminotetratriacontane-1,3-diol] | 5 | 24.56 | 0.55
CCCCCCCCCCCCCCCCCCC[C@@H](O)[C@@H](N)CO [Sphingosine (d22:0), (2S,3R)-2-aminodocosane-1,3-diol] | 22.99 | 24.32 | 39.08
CCCCCCCCCCCCCCCCCCCCCCCCCCCCCCCCC[C@@H](O)[C@@H](N)CO [Sphingosine (d36:0), (2S,3R)-2-aminohexatriacontane-1,3-diol] | 40.66 | 62.71 | 58.22
CCCCCCCCCCCCCCCCCCCCCCCCCCCCCCCC[C@@H](O)[C@@H](N)CO [Sphingosine (d35:0), (2S,3R)-2-aminopentatriacontane-1,3-diol] | 43.03 | 69.95 | 51.46
CCCCCCCCCCCCCCCCCCCCCCCCCC[C@@H](O)[C@@H](N)CO [Sphingosine (d29:0), (2S,3R)-2-aminononacosane-1,3-diol] | 72.18 | 65.81 | 83.57
CCCCCCCCCCCCCCCCCCCCCCCCCCCCCC[C@@H](O)[C@@H](N)CO [Sphingosine (d33:0), (2S,3R)-2-aminotritriacontane-1,3-diol] | 61.39 | 72.21 | 2.48
CCCCCCCCCCCCCCCCCCCCC[C@@H](O)[C@@H](N)CO [Sphingosine (d24:0), (2S,3R)-2-aminotetracosane-1,3-diol] | 96.77 | 98.13 | 96.61
CCCCCCCCCCCCCCCCCCCCCCC/C=C/[C@@H](O)[C@@H](N)CO [Sphingosine (d28:1), (2S,3R,E)-2-aminooctacos-4-ene-1,3-diol] | 86.5 | 84.15 | 96.66
CCCCCCCCCCCCCCCCCCCCCCCCCCCCCC/C=C/[C@@H](O)[C@@H](N)CO [Sphingosine (d35:1), (2S,3R,E)-2-aminopentatriacont-4-ene-1,3-diol] | 50.79 | 64.66 | 53.75
CCCCCCCCCCCCCCCCCCCCCCCCCCCCC[C@@H](O)[C@@H](N)CO [Sphingosine (d32:0), (2S,3R)-2-aminodotriacontane-1,3-diol] | 34.02 | 46.19 | 70.16
CCCCCCCCCCCCCCCCCCCCCCCCCCC[C@@H](O)[C@@H](N)CO [Sphingosine (d30:0), (2S,3R)-2-aminotriacontane-1,3-diol] | 83.38 | 78.84 | 93.63
CCCCCCCCCCCCCCCCCCCCCCCCC/C=C/[C@@H](O)[C@@H](N)CO [Sphingosine (d30:1), (2S,3R,E)-2-aminotriacont-4-ene-1,3-diol] | 95.79 | 54.83 | 69.34
CCCCCCCCCCCCCCCCCCCC/C=C/[C@@H](O)[C@@H](N)CO [Sphingosine (d25:1), (2S,3R,E)-2-aminopentacos-4-ene-1,3-diol] | 78.12 | 78.43 | 89.70
CCCCCCCCCCCCCCCCCCCCCCC[C@@H](O)[C@@H](N)CO [Sphingosine (d26:0), (2S,3R)-2-aminohexacosane-1,3-diol] | 95.55 | 95.2 | 97.75
CCCCCCCCCCCCCCCCCCCCCCCCCC/C=C/[C@@H](O)[C@@H](N)CO [Sphingosine (d31:1), (2S,3R,E)-2-aminohentriacont-4-ene-1,3-diol] | 75.77 | 82.66 | 60.61
CCCCCCCCCCCCCCCCCCCCCCCCCCC/C=C/[C@@H](O)[C@@H](N)CO [Sphingosine (d32:1), (2S,3R,E)-2-aminodotriacont-4-ene-1,3-diol] | 86.77 | 62.18 | 87.38
CCCCCCCCCCCCCCCCCCCC[C@@H](O)[C@@H](N)CO [Sphingosine (d23:0), (2S,3R)-2-aminotricosane-1,3-diol] | 98.16 | 98.65 | 78.91
CCCCCCCCCCCCCCCCCCCCCCCCCCCCC/C=C/[C@@H](O)[C@@H](N)CO [Sphingosine (d34:1), (2S,3R,E)-2-aminotetratriacont-4-ene-1,3-diol] | 38.31 | 66.64 | 2.95
CCCCCCCCCCCCCCCCCCCCCCCC[C@@H](O)[C@@H](N)CO [Sphingosine (d27:0), (2S,3R)-2-aminoheptacosane-1,3-diol] | 91.06 | 97.57 | 97.35
CCCCCCCCCCCCCCCCCCCCCCCCCCCCCCC/C=C/[C@@H](O)[C@@H](N)CO [Sphingosine (d36:1), (2S,3R,E)-2-aminohexatriacont-4-ene-1,3-diol] | 25.23 | 48.37 | 48.77
CCCCCCCCCCCCCCCCCCCCC/C=C/[C@@H](O)[C@@H](N)CO [Sphingosine (d26:1), (2S,3R,E)-2-aminohexacos-4-ene-1,3-diol] | 87.97 | 85.87 | 96.03
CCCCCCCCCCCCCCCCCCC/C=C/[C@@H](O)[C@@H](N)CO [Sphingosine (d24:1), (2S,3R,E)-2-aminotetracos-4-ene-1,3-diol] | 63.97 | 79.66 | 16.65
CCCCCCCCCCCCCCCCCCCCCC/C=C/[C@@H](O)[C@@H](N)CO [Sphingosine (d27:1), (2S,3R,E)-2-aminoheptacos-4-ene-1,3-diol] | 92.77 | 95.74 | 99.42
